Format in all cases: cell-based
Assay [1] deals with Candida albicans ATCC 10231. The experiment in a line: Suspension test, fungicidal activity (modified EN 1275), Table A. As to conditions: contact time 24 h. As to the method:
The following examples illustrate the invention. Unless indicated otherwise, percentages refer to percent by weight (b.w.), room temperature denotes a temperature from the range 20-24° C. The determination of bactericidal activity and fungicidal activity in surfactants or shampoo formulations of the present invention is measured in a suspension test according to trivial modifications of the European Standard methods EN 1040 and EN 1275, respectively. For the suspension tests, an appropriate concentration of the test compound is mixed with a bacterial suspension resulting in a final cell count in the mixture of about 10^7 cfu/ml. These test mixtures are incubated at room temperature (22° C.+/−2° C.) and aliquots of 1 ml test mixture containing the test bacteria are taken after set contact times for determination of the residual cell count of test bacteria. For inactivation of the antimicrobial compounds, the 1 ml aliquots are diluted in 1:10 steps with an aqueous solution containing 10% of Tween 80 (a polyethoxylated sorbitan ester surfactant), 3% lecithin, 0.1% histidine and 0.5% sodium thiosulfate. The fungicidal activity of the compounds of the present invention is measured in a suspension test (trivial modification of the European Standard method EN 1275). The compound of the invention is dissolved in ethanol resulting in a 1% b.w. solution of the compound. […]

The test system of assay [2] is Pseudomonas aeruginosa ATCC 15442. The experiment in a line: Suspension test of compound in surfactants and shampoo. As to conditions: 24 h, start 10^5 cfu/ml. As to the method:
(§1) The following examples illustrate the invention. Unless indicated otherwise, percentages refer to percent by weight (b.w.), room temperature denotes a temperature from the range 20-24° C. The determination of bactericidal activity and fungicidal activity in surfactants or shampoo formulations of the present invention is measured in a suspension test according to trivial modifications of the European Standard methods EN 1040 and EN 1275, respectively. The compound of the invention is incorporated in an anionic surfactant, for example sodium laureth sulphate (Epicol ESB 70), or a non-ionic surfactant such as decyl glucoside (Plantacare 2000UP), or an amphoteric surfactant, for example cocamidopropyl betaine (Tego Betain F50). Each of the surfactants is tested at 10% a.i. Furthermore, the 5-amino-salicylic acid derivatives of the invention are incorporated in a typical shampoo formulation with the following composition: • 0.01 to 5% by weight of 5 amino-salicylic acid derivative, • 7.0% by weight sodium laureth-2-sulfate, • 2.5% by weight decyl glucoside • 4.0% by weight cocamidopropyl betaine, • 1.0% by weight NaCl and • water ad 100%. • pH 6 is adjusted with NaOH. The surfactant solutions and shampoo formulations tested contain 1% b.w. of the compound of the invention. The cell densities of the bacterial suspensions used as inoculums for the suspension tests are as follows (cfu=colony forming units): [table] The cell density in the test is adjusted to 10^5 cfu/ml. These test mixtures are incubated at room temperature (22° C.+/−2° C.) and aliquots of 1 ml test mixture are taken after set contact times for determination of the residual cell count. For inactivation of the antimicrobial compounds, the 1 ml aliquots are diluted in 1:10 steps with an aqueous solution containing 10% Tween 80 (a polyethoxylated sorbitan ester surfactant), 3% lecithin, 0.1% histidine and 0.5% sodium thiosulfate.

For assay [3], the system named is Escherichia coli ATCC 10536. The description is as above. The settings on record: 24 h, start 10^5 cfu/ml. As to the method: as §1
Assay [4] relates to Staphylococcus aureus ATCC 6538. The assay is described as above. The settings on record: 24 h, start 10^5 cfu/ml. The procedure:
as §1

Assay [5] deals with Pseudomonas aeruginosa ATCC15442. As to the kind of experiment: Suspension test, bactericidal activity (modified EN 1040). As to conditions: room temperature, start about 10^7 cfu/ml. As to the method: (§2) The following examples illustrate the invention. Unless indicated otherwise, percentages refer to percent by weight (b.w.), room temperature denotes a temperature from the range 20-24° C. The determination of bactericidal activity and fungicidal activity in surfactants or shampoo formulations of the present invention is measured in a suspension test according to trivial modifications of the European Standard methods EN 1040 and EN 1275, respectively. The bactericidal activity of the compounds of the present invention is measured in a suspension test (trivial modification of the European Standard method EN 1040). Substances listed in Table 1 are tested against gram positive and gram negative bacteria. The compound of the invention is dissolved in ethanol resulting in a 1% b.w. stock solution. The cell densities of the bacterial suspensions used as inoculums for the suspension test are as follows (cfu=colony forming units): [table] For the suspension tests, an appropriate concentration of the test compound is mixed with a bacterial suspension resulting in a final cell count in the mixture of about 10^7 cfu/ml. These test mixtures are incubated at room temperature (22° C.+/−2° C.) and aliquots of 1 ml test mixture containing the test bacteria are taken after set contact times for determination of the residual cell count of test bacteria. For inactivation of the antimicrobial compounds, the 1 ml aliquots are diluted in 1:10 steps with an aqueous solution containing 10% of Tween 80 (a polyethoxylated sorbitan ester surfactant), 3% lecithin, 0.1% histidine and 0.5% sodium thiosulfate.

The subject of assay [6] is Escherichia coli ATCC 10536. The assay is described as above. As to conditions: room temperature, start about 10^7 cfu/ml. As to the method:
as §2

In assay [7] the test system is Staphylococcus aureus ATCC 6538. Described as above. As to conditions: room temperature, start about 10^7 cfu/ml. As to the method: as §2
Assay [8] concerns Candida albicans AJCC 10231. The experiment in a line: Suspension test of compound in surfactants and shampoo. As to conditions: 24 h, start 10^5 cfu/ml. As to the method: as §1, with “respectively. The fungicidal activity of the compounds of the present invention is measured in a suspension test (trivial modification of the European Standard method EN 1275).” for “respectively.”

For assay [9], the system named is Aspergillus niger ATCC 6275. Described as above. The settings on record: 7 days, start 10^5 cfu/ml. As to the method: as §1, with “respectively. The fungicidal activity of the compounds of the present invention is measured in a suspension test (trivial modification of the European Standard method EN 1275).” for “respectively.”
Setting [10] is: 1% b.w. compound in amphoteric surfactant (cocamidopropyl betaine, 10% a.i.).
The mark [11] stands for this setting: 1% b.w. compound in anionic surfactant (sodium laureth sulfate, 10% a.i.).
The mark [12] stands for this setting: 1% b.w. compound in non-ionic surfactant (decyl glucoside, 10% a.i.).
Setting [13] is: 1% b.w. compound in shampoo formulation, pH 6.

SMILES strings stand for the structures.

On to `CCCCCC(=O)Nc1ccc(O)c(C(=O)O)c1` [compound 596, 5-hexanoylamino-salicylic acid], for which the log reduction in [1] was above 4 log; in assay [2] (setting [10]) it was above 3 log; in assay [2] (setting [11]), above 3 log; in assay [2] (setting [12]), above 3 log; in assay [3] (setting [10]), above 3 log; in assay [3] (setting [11]), above 3 log. The log reduction in assay [3] (setting [12]), in assay [3] (setting [13]), in assay [4] (setting [10]), in assay [4] (setting [11]), in [4] (setting [12]) and in assay [4] (setting [13]) was above 3 log in each case. Besides, the log reduction in assay [5] (contact time 30 min) was above 5 log; in assay [6] (contact time 30 min), above 5 log; in assay [7] (contact time 30 min), above 5 log; in assay [8] (setting [10]) it was above 3 log; in assay [8] (setting [11]) it was 1.2 log; in [8] (setting [12]) it was above 3 log. Also, the log reduction in [9] (setting [10]) is reported as 2.3 log; in assay [9] (setting [11]), 2.1 log; in assay [9] (setting [12]), 1.1 log. In addition, the residual cell count in assay [1], in assay [2] (setting [10]), in [2] (setting [11]), in assay [2] (setting [12]), in assay [3] (setting [10]) and in assay [3] (setting [11]) was below 100 cfu/ml each time. The residual cell count in assay [3] (setting [12]), in assay [3] (setting [13]), in [4] (setting [10]), in assay [4] (setting [11]), in assay [4] (setting [12]) and in assay [4] (setting [13]) was below 100 cfu/ml in each case. The residual cell count is listed as below 100 cfu/ml in [5] (contact time 30 min); below 100 cfu/ml in [6] (contact time 30 min); below 100 cfu/ml in [7] (contact time 30 min); below 100 cfu/ml in assay [8] (setting [10]); 1.4 × 10^4 cfu/ml in assay [8] (setting [11]); below 100 cfu/ml in assay [8] (setting [12]). Moreover, the values for the residual cell count in [9] (setting [10]), in [9] (setting [11]) and in [9] (setting [12]) were 1.2 × 10^3 cfu/ml, 1.7 × 10^3 cfu/ml and 1.9 × 10^4 cfu/ml, respectively.

For the compound `CCCCCCCCCCCC(=O)Nc1ccc(O)c(C(=O)O)c1` [compound 597], in assay [7] (contact time 24 h), the log reduction is above 5 log and the residual cell count is reported as 1.6 × 10^3 cfu/ml.

Take `O=C(O)c1cc(NC(=O)C2CCCCC2)ccc1O` [compound 601, 5-cyclohexanoylamino-salicylic acid]: the log reduction was 4.8 log in assay [5] (contact time 24 h), 4.3 log in assay [6] (contact time 24 h) and above 5 log in assay [7] (contact time 24 h). The residual cell count in assay [5] (contact time 24 h) was 6.1 × 10^2 cfu/ml; in assay [6] (contact time 24 h) it was 9.1 × 10^2 cfu/ml; in assay [7] (contact time 24 h), below 100 cfu/ml.

The values above are taken from patent US9644175B2, “Antimicrobial amino-salicylic acid derivatives” (BASF SE, priority 2009, dated 2017).
